In patent US20260183411A1, “TARGETING SORTILIN” (priority 2024, published 2026):
Like-named read-outs stand apart in the source and are kept apart here. One block for each molecule: values may come before it. Where a SMILES comes first, the peptide text is derived from it. [ ]: non-standard residue; d: D form. The star is where a group is joined. Dolaproine = CO[C@@H]([C@@H]1CCCN1)[C@@H](C)C(=O)O; Dil = CC[C@H](C)[C@H](NC)[C@@H](CC(=O)O)OC; X1 = C[C@@H](N*)[C@@H](O)c1ccccc1; NMeV = CN[C@H](C(=O)O)C(C)C

Legend:
[1] = Murine serum stability assay; format: in vitro ADME, mouse; conditions: read-out: Murine serum stability assay, T1/2
Description: Serum was drawn from male CD-1 mice by Pharmidex. Lyophilized peptides were solubilized in DMSO and then further diluted into male mouse (CD-1) serum at 37° C. in duplicates. The reaction was incubated at 37° C. and samples extracted at 6 time points: 0, 0.16, 0.5, 1, 3, and 6 hrs. Acetonitrile (ACN) with an internal standard (tolbutamide) was added to stop the incubation. Samples were centrifuged, and the supernatant was analyzed by HPLC-MS/MS for the parent compound.

MDA-MB-231 xenograft = assay: MDA-MB-231 murine xenograft efficacy model; format: in vivo, mouse
Description: Murine xenograft experiments were conducted at WuXi AppTec and/or Charles River Laboratories and the care and use of animals was conducted in accordance with the regulations of the Association for Assessment and Accreditation of Laboratory Animal Care (AAALAC). MDA-MB-231 tumor cells (ATCC, Manassas, VA, cat #HTB-26) were grown and maintained in L15 medium supplemented with 10% heat inactivated fetal bovine serum, 1% Antibiotic-Antimycotic, and L-glutamine (2 mM) at 37° C. in an atmosphere in 5% CO2, 95% air. BALB/c Nude, female, 6-8 weeks, weighing approximately 18-22 g were purchased from Vital River Laboratory Animal Technology Co., LTD. Mice were inoculated subcutaneously at the right flank with MDA-MB-231 tumor cells (e.g., triple negative breast cancer cells) (10×10^6) in 0.2 mL of PBS with Matrigel (1:1) for tumor development. Animals were randomized and treatment was started when the average tumor volume reached approximately 150-200 mm^3 for the efficacy study. Dosing volume was adjusted based on body weight and was administered at 10 mL/Kg. […] Free MMAE payload was also tested, and similarly dissolved in 25 mM Histidine 10% sucrose pH 7 and one or more of the following doses, 0.6, 0.06 mg/kg, were administered to the mice i.v. at a QW×4 schedule. Tumor sizes were measured twice weekly in two dimensions using a caliper, and the volume in mm^3 calculated using the formula: V=0.5 a×b^2, where a and b are the long and short diameters of the tumor, respectively. TGI was calculated for each group using the formula: TGI (%)=[1−(Ti−T0)/(Vi−V0)]×100; where Ti is the average tumor volume of a treatment group on a given day, TO is the average tumor volume of the treatment group on the first day of treatment, Vi is the average tumor volume of the vehicle control group on the same day with Ti, and V0 is the average tumor volume of the vehicle group on the first day of treatment.
To characterize the effects of the MMAE payload alone, we included free MMAE at molar equivalency to PDCs, and tested at 0.6 and 0.06 mg/kg, as separate arms.
To characterize the effects of the MMAE payload alone, we included free MMAE at molar equivalency to PDCs, and tested at 0.6 mg/kg.

[2] = male, CD-1, mouse, mouse serum, linear peptides, Table 11
[3] = mouse, serum, linear peptides, Table 11
[4] = male, CD-1, mouse, mouse serum, cyclic peptides, Table 12
[5] = mouse, serum, cyclic peptides, Table 12

- half-life [1, 2]: 12.1 min
SMILES: CC(C)CC[C@H](NC(=O)[C@H](CCC(N)=O)NC(=O)[C@H](CCCNC(=N)N)NC(=O)[C@H](CC(C)C)NC(=O)[C@H](C)NC(=O)[C@@H]1CCCN1C(=O)[C@H](CC(=O)O)NC(=O)[C@H](CCCNC(=N)N)NC(=O)[C@H](CC(C)C)NC(=O)[C@@H]1CCCN1C(=O)[C@H](C)NC(=O)[C@H](CC(=O)O)NC(=O)[C@H](Cc1c[nH]c2ccccc12)NC(=O)[C@H](CCCNC(=N)N)NC(=O)[C@@H]1CCCN1C(=O)[C@H](C)N)C(=O)N[C@@H](CC(C)(C)C)C(=O)O [Arb-SAR-P17]

- half-life [1, 3]: 9.95 min
SMILES: CC(C)C[C@H](NC(=O)[C@H](C)NC(=O)[C@@H]1CCCN1C(=O)[C@H](CC(=O)O)NC(=O)[C@H](CCCNC(=N)N)NC(=O)[C@H](CC(C)C)NC(=O)[C@@H]1CCCN1C(=O)[C@H](C)NC(=O)[C@H](CC(=O)O)NC(=O)[C@H](Cc1c[nH]c2ccccc12)NC(=O)[C@H](CCCNC(=N)N)NC(=O)[C@@H]1CCCN1C(=O)[C@H](C)N)C(=O)N[C@@H](CCCNC(=N)N)C(=O)N[C@@H](CCC(N)=O)C(=O)N[C@@H](CC(C)(C)C)C(=O)N[C@@H](CC(C)(C)C)C(=O)O [Arb-SAR-P22]

- half-life [1, 2]: 10.1 min
SMILES: CC(C)C[C@H](NC(=O)[C@H](C)NC(=O)[C@@H]1CCCN1C(=O)[C@H](CC(=O)O)NC(=O)[C@H](CCCNC(=N)N)NC(=O)[C@H](CC(C)C)NC(=O)[C@@H]1CCCN1C(=O)[C@H](C)NC(=O)[C@H](CC(=O)O)NC(=O)[C@H](Cc1c[nH]c2ccccc12)NC(=O)[C@H](CCCNC(=N)N)NC(=O)[C@@H]1CCCN1C(=O)[C@H](C)N)C(=O)N[C@@H](CCCNC(=N)N)C(=O)N[C@@H](CCC(N)=O)C(=O)N[C@@H](CC1CCC1)C(=O)N[C@@H](CC(C)(C)C)C(=O)O [Arb-SAR-P24]

- half-life [1, 3]: 11.5 min
SMILES: CC(C)CC[C@H](NC(=O)[C@H](CCC(N)=O)NC(=O)[C@H](CCCNC(=N)N)NC(=O)[C@H](CC(C)C)NC(=O)[C@H](C)NC(=O)[C@@H]1CCCN1C(=O)[C@H](CC(=O)O)NC(=O)[C@H](CCCNC(=N)N)NC(=O)[C@H](CC(C)C)NC(=O)[C@@H]1CCCN1C(=O)[C@H](C)NC(=O)[C@H](CC(=O)O)NC(=O)[C@H](Cc1c[nH]c2ccccc12)NC(=O)[C@H](CCCNC(=N)N)NC(=O)[C@@H]1CCCN1C(=O)[C@H](C)N)C(=O)N[C@@H](CC1CCC1)C(=O)O [Arb-SAR-Q09]

SMILES: CC(C)C[C@H](NC(=O)[C@H](C)NC(=O)[C@@H]1CCCN1C(=O)[C@H](CC(=O)O)NC(=O)[C@H](CCCNC(=N)N)NC(=O)[C@H](CC(C)C)NC(=O)[C@@H]1CCCN1C(=O)[C@H](C)NC(=O)[C@H](CC(=O)O)NC(=O)[C@H](Cc1c[nH]c2ccccc12)NC(=O)[C@H](CCCNC(=N)N)NC(=O)[C@@H]1CCCN1C(=O)[C@H](C)N)C(=O)N[C@@H](CCCNC(=N)N)C(=O)N[C@@H](CCC(N)=O)C(=O)N[C@H](C(=O)N[C@@H](CC1CCC1)C(=O)O)C(C)(C)C [Arb-SAR-Q15]
- half-life [1, 2]: 16.9 min

- half-life [1, 4]: 46.1 min
SMILES: CCCC[C@@H]1NC(=O)[C@@H](NC(=O)[C@H](CCC(N)=O)NC(=O)[C@H](C)NC(C)=O)CSSC[C@@H](C(=O)N[C@@H](CCCNC(=N)N)C(=O)N[C@@H](CCC(N)=O)C(=O)N[C@H](C(=O)N[C@@H](CC(C)(C)C)C(=O)O)C(C)(C)C)NC(=O)[C@H](C)NC(=O)[C@H](CCCNC(=N)N)NC(=O)[C@H](CC(N)=O)NC(=O)[C@H](CCCNC(=N)N)NC(=O)CNC1=O [Arb_cyclic_C5]

- half-life [1, 5]: 58.3 min
SMILES: CC(=O)N[C@@H](Cc1c[nH]cn1)C(=O)N[C@@H](CC(N)=O)C(=O)N[C@@H](Cc1ccccc1)C(=O)N[C@@H](Cc1ccc(O)cc1)C(=O)N[C@H]1CSSC[C@@H](C(=O)N[C@@H](CCC(N)=O)C(=O)N[C@@H](CCCNC(=N)N)C(=O)N[C@@H](CCC(N)=O)C(=O)N[C@H](C(=O)N[C@@H](CC(C)(C)C)C(=O)O)C(C)(C)C)NC(=O)[C@H](Cc2c[nH]cn2)NC(=O)[C@H](CCCCN)NC(=O)[C@H](CCCNC(=N)N)NC1=O [Arb_cyclic_C22]

- half-life [1, 4]: 173 min
SMILES: CC(=O)N[C@@H](CCC(=O)O)C(=O)N[C@@H](Cc1c[nH]c2ccccc12)C(=O)N[C@H]1CSSC[C@@H](C(=O)N[C@@H](CCCNC(=N)N)C(=O)N[C@@H](CCC(N)=O)C(=O)N[C@H](C(=O)N[C@@H](CC(C)(C)C)C(=O)O)C(C)(C)C)NC(=O)[C@H]([C@@H](C)O)NC(=O)[C@@H]2CCCN2C(=O)[C@H](Cc2c[nH]cn2)NC(=O)[C@H](CC(N)=O)NC(=O)[C@H](Cc2c[nH]cn2)NC(=O)[C@H](CC(C)C)NC(=O)CNC1=O [Arb_cyclic_F3]

- half-life [1, 4]: 30.8 min
SMILES: CC(=O)N[C@@H](CCCNC(=N)N)C(=O)N[C@@H](CC(=O)O)C(=O)N[C@H]1CSSC[C@@H](C(=O)N[C@@H](CCCNC(=N)N)C(=O)N[C@@H](CCC(N)=O)C(=O)N[C@H](C(=O)N[C@@H](CC(C)(C)C)C(=O)O)C(C)(C)C)NC(=O)[C@@H]2CCCN2C(=O)[C@@H]2CCCN2C(=O)[C@H](C)NC(=O)[C@H](CCCNC(=N)N)NC(=O)[C@H](CC(C)C)NC(=O)[C@H](CO)NC(=O)[C@H](C)NC1=O [Arb_cyclic_G2]

- half-life [1, 5]: 11.2 min
SMILES: CCCC[C@H](NC(=O)[C@H](CCCNC(=N)N)NC(C)=O)C(=O)N[C@H]1CSSC[C@@H](C(=O)N[C@@H](CCCNC(=N)N)C(=O)N[C@@H](CCC(N)=O)C(=O)N[C@H](C(=O)N[C@@H](CC(C)(C)C)C(=O)O)C(C)(C)C)NC(=O)[C@H](C)NC(=O)[C@@H]2CCCN2C(=O)[C@H](CO)NC(=O)[C@H](CCCNC(=N)N)NC(=O)[C@H]([C@@H](C)CC)NC(=O)[C@@H]2CCCN2C(=O)CNC1=O [Arb_cyclic_G10]

- half-life [1, 5]: 50.3 min
SMILES: CCCC[C@@H]1NC(=O)[C@H](CCCNC(=N)N)NC(=O)[C@H](CCCNC(=N)N)NC(=O)[C@H]([C@@H](C)O)NC(=O)[C@H]([C@@H](C)O)NC(=O)[C@@H](NC(=O)[C@H](CO)NC(=O)[C@H](CCCNC(=N)N)NC(C)=O)CSSC[C@@H](C(=O)N[C@@H](CCCNC(=N)N)C(=O)N[C@@H](CCC(N)=O)C(=O)N[C@H](C(=O)N[C@@H](CC(C)(C)C)C(=O)O)C(C)(C)C)NC(=O)[C@H]([C@@H](C)O)NC(=O)[C@H](C)NC1=O [Arb_cyclic_G14, RSCTTRR(Nle)ATCRQ(B13)(F02)] (HELM PEPTIDE1{[ac].R.S.C.T.T.R.R.[Nle].A.T.C.R.Q.[CC(C)(C)[C@H](N[*:1])C(=O)[*:2]].[CC(C)(C)C[C@H](N[*:1])C(=O)O]}$PEPTIDE1,PEPTIDE1,4:R3-12:R3$$$V2.0)

- half-life [1, 4]: 39.1 min
SMILES: CCCC[C@@H]1NC(=O)[C@H](CCCNC(=N)N)NC(=O)[C@H](CCCNC(=N)N)NC(=O)[C@H](CC(N)=O)NC(=O)[C@H](CCC(=O)O)NC(=O)[C@@H](NC(=O)[C@H](Cc2c[nH]c3ccccc23)NC(=O)[C@H](CCCNC(=N)N)NC(C)=O)CSSC[C@@H](C(=O)N[C@@H](CCCNC(=N)N)C(=O)N[C@@H](CCC(N)=O)C(=O)N[C@H](C(=O)N[C@@H](CC(C)(C)C)C(=O)O)C(C)(C)C)NC(=O)[C@H]([C@@H](C)O)NC(=O)[C@H](Cc2ccccc2)NC1=O [Arb_cyclic_G23, RWCENRR(Nle)FTCRQ(B13)(F02)]

SMILES: CC[C@H](C)[C@@H]([C@@H](CC(=O)N1CCC[C@H]1[C@H](OC)[C@@H](C)C(=O)N[C@H](C)[C@@H](O)c1ccccc1)OC)N(C)C(=O)[C@@H](NC(=O)[C@@H](NC)C(C)C)C(C)C [Free MMAE, Monomethyl auristatin E, reference compound] (H-[NMeV]V[Dil][Dolaproine]-X1; N-terminus and C-terminus assumed)
- body weight variation (Example 6) (MDA-MB-231 xenograft; PDC at each dose, free MMAE at equivalency to 3 mg/kg PDC): body weight fluctuations corresponding to treatment times
- body weight loss (Example 8) (MDA-MB-231 xenograft; PDCs 3 mg/kg, free MMAE at molar equivalency (0.6 mg/kg)): body weight fluctuations corresponding to treatment times
